# Measurements published in patent US4421760A, “β-Lactam antibiotic, its preparation and use” (Beecham Group Limited, priority 1980, dated 1983).
# Read-outs that look alike come from different tables or passages of the source.
# Columns and labels:
# [1] = molecular target: Klebsiella aerogenes E70 β-Lactamase; assay: β-Lactamase inhibitory activity; format: biochemical
# Method: (§1) β-Lactamase Inhibitory Activity of MM 27696 sodium salt
# (§2) b = without preincubation
# [2] = molecular target: S. aureus Russell β-Lactamase (Staphylococcus aureus, UniProt P00807); assay: β-Lactamase inhibitory activity; format: biochemical; settings: read-out: β-Lactamase Inhibitory Activity I50 (converted)
# Method: as §1, §2
# [3] = molecular target: E. coli JT4 β-Lactamase (Escherichia coli, UniProt P62593); assay: β-Lactamase inhibitory activity; format: biochemical; settings: read-out: β-Lactamase Inhibitory Activity I50 (converted)
# Method: as §1, §2
# [4] = molecular target: Enterobacter cloacae P99 β-Lactamase (Enterobacter cloacae, UniProt P05364); assay: β-Lactamase inhibitory activity; format: biochemical; settings: read-out: β-Lactamase Inhibitory Activity I50 (converted)
# Method: as §1, §2
# [5] = tested on: Streptococcus pyogenes CN10; assay: Antibacterial activity, microtitre method; format: cell-based
# Source text: (§3) The antibacterial activity of the preparation of MM 27696 described in the example has been determined by the microtitre method and is reported in The Table.
# (§4) Antibacterial Activity of MM 27696 sodium salt determined
# (§5) by the Microtitre Method
# [6] = tested on: Escherichia coli JT 39; assay: Antibacterial activity, microtitre method; format: cell-based; settings: JT39
# Source text: as §3, §4, §5
# [7] = tested on: Staphylococcus aureus 1517; assay: Antibacterial activity, microtitre method; format: cell-based
# Source text: as §3, §4, §5
# [8] = tested on: Proteus morganii I580; assay: Antibacterial activity, microtitre method; format: cell-based; settings: Morganella morganii
# Source text: as §3, §4, §5
# [9] = tested on: Shigella sonnei MB 11967; assay: Antibacterial activity, microtitre method; format: cell-based; settings: MB11967
# Source text: as §3, §4, §5
# [10] = tested on: Salmonella typhimurium CT10; assay: Antibacterial activity, microtitre method; format: cell-based; settings: Salmonella enterica
# Source text: as §3, §4, §5
# [11] = tested on: Streptococcus faecalis I; assay: Antibacterial activity, microtitre method; format: cell-based; settings: Enterococcus faecalis
# Source text: as §3, §4, §5
# [12] = tested on: Staphylococcus aureus Oxford; assay: Antibacterial activity, microtitre method; format: cell-based
# Source text: as §3, §4, §5
# [13] = tested on: Serratia marcescens US20; assay: Antibacterial activity, microtitre method; format: cell-based
# Source text: as §3, §4, §5
# [14] = tested on: Citrobacter freundii E8; assay: Antibacterial activity, microtitre method; format: cell-based
# Source text: as §3, §4, §5
# [15] = tested on: Escherichia coli 0111; assay: Antibacterial activity, microtitre method; format: cell-based
# Source text: as §3, §4, §5
# [16] = tested on: Klebsiella aerogenes A; assay: Antibacterial activity, microtitre method; format: cell-based
# Source text: as §3, §4, §5
# [17] = tested on: Staphylococcus aureus Russell; assay: Antibacterial activity, microtitre method; format: cell-based
# Source text: as §3, §4, §5
# [18] = tested on: Bacillus subtilis A; assay: Antibacterial activity, microtitre method; format: cell-based
# Source text: as §3, §4, §5
# [19] = tested on: Proteus rettgeri WM16; assay: Antibacterial activity, microtitre method; format: cell-based; settings: Providencia rettgeri
# Source text: as §3, §4, §5
# [20] = tested on: Proteus vulgaris W091; assay: Antibacterial activity, microtitre method; format: cell-based
# Source text: as §3, §4, §5
# [21] = tested on: Enterobacter cloacae N1; assay: Antibacterial activity, microtitre method; format: cell-based
# Source text: as §3, §4, §5
# [22] = tested on: Proteus mirabilis C977; assay: Antibacterial activity, microtitre method; format: cell-based
# Source text: as §3, §4, §5
# [23] = tested on: E. coli ESS; assay: Antibacterial activity, microtitre method; format: cell-based; settings: Escherichia coli
# Source text: as §3, §4, §5
# [24] = tested on: Pseudomonas aeruginosa A; assay: Antibacterial activity, microtitre method; format: cell-based
# Source text: as §3, §4, §5
# [25] = tested on: Streptococcus pneumoniae CN33; assay: Antibacterial activity, microtitre method; format: cell-based
# Source text: as §3, §4, §5
# Sequence of S. aureus Russell β-Lactamase (P00807 25-281): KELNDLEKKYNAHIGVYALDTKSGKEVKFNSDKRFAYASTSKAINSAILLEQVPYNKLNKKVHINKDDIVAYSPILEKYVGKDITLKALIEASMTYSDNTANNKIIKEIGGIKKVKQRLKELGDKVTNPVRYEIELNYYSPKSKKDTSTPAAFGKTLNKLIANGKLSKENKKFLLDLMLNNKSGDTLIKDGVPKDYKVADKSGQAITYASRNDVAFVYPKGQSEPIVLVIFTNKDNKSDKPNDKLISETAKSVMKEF
# Sequence of Enterobacter cloacae P99 β-Lactamase (P05364 21-381): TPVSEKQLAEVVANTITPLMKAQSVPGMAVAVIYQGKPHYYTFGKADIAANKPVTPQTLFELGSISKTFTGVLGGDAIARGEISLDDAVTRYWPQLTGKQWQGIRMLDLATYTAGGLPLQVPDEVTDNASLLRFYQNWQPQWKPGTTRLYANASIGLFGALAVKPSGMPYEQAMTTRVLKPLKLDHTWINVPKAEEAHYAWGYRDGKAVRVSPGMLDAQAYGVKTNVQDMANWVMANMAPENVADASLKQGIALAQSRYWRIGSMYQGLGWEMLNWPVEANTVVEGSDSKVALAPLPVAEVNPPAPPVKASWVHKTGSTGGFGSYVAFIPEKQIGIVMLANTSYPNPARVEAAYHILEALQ
# Sequence of E. coli JT4 β-Lactamase (P62593 24-286 limits assumed): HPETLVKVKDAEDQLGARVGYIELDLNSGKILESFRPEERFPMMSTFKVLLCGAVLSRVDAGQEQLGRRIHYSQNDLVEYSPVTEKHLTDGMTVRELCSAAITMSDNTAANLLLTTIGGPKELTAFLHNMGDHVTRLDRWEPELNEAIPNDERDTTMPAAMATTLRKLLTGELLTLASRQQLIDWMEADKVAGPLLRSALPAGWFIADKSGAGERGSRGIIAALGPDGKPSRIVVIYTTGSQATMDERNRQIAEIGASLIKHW
smiles,measurement,setting,value
CCC(=O)N/C=C/SC1=C(C(=O)O)N2C(=O)[C@@H]([C@H](C)OS(=O)(=O)O)[C@H]2C1 [MM 27696],β-Lactamase Inhibitory Activity I50,[1]; a = with preincubation,0.003 µg/mL
same,β-Lactamase Inhibitory Activity I50,[1]; b = without preincubation,0.4 µg/mL
same,IC50,[2]; a = with preincubation,73.8 nM
same,IC50,[2]; b = without preincubation,> 123000 nM
same,IC50,[3]; a = with preincubation,24.6 nM
same,IC50,[3]; b = without preincubation,984 nM
same,IC50,[4]; a = with preincubation,4.92 nM
same,IC50,[4]; b = without preincubation,615 nM
same,MIC,[5],< 0.1 µg/mL
same,MIC,[6],0.2 µg/mL
same,MIC,[7],100 µg/mL
same,MIC,[8],0.2 µg/mL
same,MIC,[9],< 0.1 µg/mL
same,MIC,[10],0.2 µg/mL
same,MIC,[11],12.5 µg/mL
same,MIC,[12],0.4 µg/mL
same,MIC,[13],6.2 µg/mL
same,MIC,[14],3.1 µg/mL
same,MIC,[15],0.8 µg/mL
same,MIC,[16],0.4 µg/mL
same,MIC,[17],0.8 µg/mL
same,MIC,[18],< 0.1 µg/mL
same,MIC,[19],0.4 µg/mL
same,MIC,[20],0.4 µg/mL
same,MIC,[21],0.2 µg/mL
same,MIC,[22],< 0.1 µg/mL
same,MIC,[23],< 0.1 µg/mL
same,MIC,[24],50 µg/mL
same,MIC,[25],< 0.1 µg/mL
